The subject of assay [1] is U2OS. Briefly: Inhibition of H4K20me3 in human U2OS cells assessed as change in methylation level at 10 uM incubated for 48 hrs by Western blotting analysis. It counts as functional, cell-based. A general note: In western blotting, separated proteins are transferred to a membrane and probed.
Assay [2] deals with 5-hydroxytryptamine receptor 1E (Homo sapiens) (UniProt P28566). Kind of assay: Inhibition of human 5-ht1e in stable HEK cells at 10 uM relative to control. It counts as cell-based.
Assay [3] is filed under the species Homo sapiens. Kind of assay: Inhibition of GABAA (unknown origin) at 10 uM relative to control.
The target of assay [4] is Neurotensin receptor type 1 (Homo sapiens) (UniProt P30989). Kind of assay: Inhibition of human NTS1 at 10 uM relative to control.
Assay [5] has as its target Sigma non-opioid intracellular receptor 1 (Homo sapiens) (UniProt Q99720). Briefly: Inhibition of human Sigma non-opioid intracellular receptor 1 at 10 uM relative to control. Format: cell-based.
The species entered for assay [6] is Homo sapiens. Kind of assay: Inhibition of human Gastric receptor I at 10 uM relative to control.
In assay [7] the test system is U2OS. Kind of assay: Inhibition of colony formation in human U2OS cells at 1 uM incubated for 48 hrs in the presence of olaparib by cell clonogenic assay. It counts as functional, cell-based.
Assay [8] has as its target Histone-lysine N-methyltransferase SUV39H2 (Homo sapiens) (UniProt Q9H5I1). Kind of assay: Inhibition of SUV39H2 (unknown origin) using Biotin-tagged H4K20me1 and [3H-SAM] as substrate at 1 to 10 uM incubated for 2 hrs by scintillation proximity assay. The settings on record: dose 1-10 µM. A general note: In a scintillation proximity assay essentially only radioactivity close to the scintillant gives light.

Assay [9] deals with Histone-lysine N-methyltransferase EHMT1 (Homo sapiens) (UniProt Q9H9B1). Briefly: Inhibition of EHMT1 (unknown origin) using Biotin-tagged H4K20me1 and [3H-SAM] as substrate at 1 to 10 uM incubated for 2 hrs by scintillation proximity assay. The settings on record: dose 1-10 µM.
The target of assay [10] is Histone-lysine N-methyltransferase NSD3 (Homo sapiens) (UniProt Q9BZ95). Kind of assay: Inhibition of NSD3 (unknown origin) at 1 to 10 uM incubated for 1 hrs by scintillation proximity assay. The settings on record: dose 1-10 µM.
The target of assay [11] is Hepatocyte growth factor receptor (Homo sapiens) (UniProt P08581). Kind of assay: Inhibition of human c-Met at 10 uM relative to control.
Assay [12] addresses Histone-lysine N-methyltransferase, H3 lysine-79 specific (Homo sapiens) (UniProt Q8TEK3). Kind of assay: Inhibition of DOT1L (unknown origin) at 1 to 10 uM incubated for 1 hrs by scintillation proximity assay. To be noted: dose 1-10 µM.
Assay [13] has as its target N-lysine methyltransferase SMYD2 (Homo sapiens) (UniProt Q9NRG4). Kind of assay: Inhibition of SMYD2 (unknown origin) using Biotin-tagged H4K20me1 and [3H-SAM] as substrate at 1 to 10 uM incubated for 2 hrs by scintillation proximity assay. The settings on record: dose 1-10 µM.
Assay [14] deals with Protein arginine N-methyltransferase 7 (Homo sapiens) (UniProt Q9NVM4). Briefly: Inhibition of PRMT7 (unknown origin) using Biotin-tagged H4K20me1 and [3H-SAM] as substrate at 1 to 10 uM incubated for 2 hrs by scintillation proximity assay. The settings on record: dose 1-10 µM.
For assay [15], the system named is U2OS. Briefly: Induction of cell cycle arrest in human U2OS cells assessed as decrease in H4K20me3 in S phase at 0.6 to 6 uM by plot analysis. To be noted: dose 0.6-6 µM. Format: functional, cell-based.
The target in assay [16] is Rho-associated protein kinase 1 (Homo sapiens) (UniProt Q13464). Kind of assay: Inhibition of human ROCK1 at 10 uM relative to control.
Assay [17] addresses Protein arginine N-methyltransferase 8 (Homo sapiens) (UniProt Q9NR22). Briefly: Inhibition of PRMT8 (unknown origin) using Biotin-tagged H4K20me1 and [3H-SAM] as substrate at 1 to 10 uM incubated for 2 hrs by scintillation proximity assay. To be noted: dose 1-10 µM.
Assay [18] deals with U2OS. Kind of assay: Induction of cell cycle arrest in human U2OS cells assessed as increase in H4K20me1 in S phase at 0.6 to 6 uM by plot analysis. It counts as functional, cell-based. To be noted: dose 0.6-6 µM.
For another assay, the system named is HeLa. Briefly: Antiproliferative activity against human HeLa cells assessed as inhibition in H4K20me2 expression level 21 doublings by Western blot analysis. Format: functional, cell-based.
Assay [19] has as its target Histone-lysine N-methyltransferase NSD2 (Homo sapiens) (UniProt O96028). Kind of assay: Inhibition of NSD2 (unknown origin) at 1 to 10 uM incubated for 1 hrs by scintillation proximity assay. To be noted: dose 1-10 µM.
A further assay is filed under the species Rattus norvegicus. Kind of assay: Inhibition of Rat alpha 2-Adrenoceptor at 10 uM relative to control.
The subject of assay [20] is U2OS. Briefly: Inhibition of colony formation in human U2OS cells at 1 uM incubated for 48 hrs in the presence of aphidicolin by cell clonogenic assay. Format: functional, cell-based.
Assay [21] has as its target RAF proto-oncogene serine/threonine-protein kinase (Homo sapiens) (UniProt P04049). Briefly: Inhibition of human RAF-1 at 10 uM relative to control.
Assay [22] concerns the target Histone-lysine N-methyltransferase KMT5B (Homo sapiens) (UniProt Q4FZB7). Kind of assay: Inhibition of recombinant human 6His-(Tev)-G-SUV420H1 (69 to 335 residues) using Biotin-tagged H4K20me1 and [3H-SAM] as substrate at 1 uM incubated for 2 hrs by scintillation proximity assay.
The test system of assay [23] is U2OS. Kind of assay: Inhibition of colony formation in human U2OS cells at 1 uM incubated for 48 hrs in the presence of CPT by cell clonogenic assay. Format: functional, cell-based.
In assay [24] the target is Insulin receptor (Homo sapiens) (UniProt P06213). Briefly: Inhibition of human IRK at 10 uM relative to control.
Assay [25] addresses Histone-lysine N-methyltransferase, H3 lysine-36 specific (Homo sapiens) (UniProt Q96L73). Briefly: Inhibition of NSD1 (unknown origin) at 1 to 10 uM incubated for 1 hrs by scintillation proximity assay. The settings on record: dose 1-10 µM.
In assay [26] the test system is U2OS. Kind of assay: Induction of DNA repair in human U2OS cells expressing I-SceI reporter assessed as decrease in H4K20me2 level by Western blot analysis. Format: functional, cell-based.
The next assay deals with LNCaP. Briefly: Cytotoxicity against human LNCaP cells assessed as cell viability upto 12.5 uM incubated for 48 hrs. It counts as functional, cell-based.
The subject of the next assay is HL-60. Briefly: Cytotoxicity against human HL-60 cells assessed as cell viability upto 12.5 uM incubated for 48 hrs. It counts as functional, cell-based.
The target of assay [27] is Calcium/calmodulin-dependent protein kinase type II subunit alpha (Homo sapiens) (UniProt Q9UQM7). Briefly: Inhibition of human CaMK2alpha at 10 uM relative to control.
For assay [28], the target named is Histone-lysine N-methyltransferase KMT5B (Homo sapiens) (UniProt Q4FZB7). Kind of assay: Inhibition of recombinant human 6His-(Tev)-G-SUV420H1 (69 to 335 residues) using Biotin-tagged H4K20me1 and [3H-SAM] as substrate at 10 uM incubated for 2 hrs by scintillation proximity assay.
Assay [29] has as its system U2OS. Briefly: Antiproliferative activity against human U2OS cells assessed as inhibition in H4K20me3 expression level 21 doublings by Western blot analysis. It counts as functional, cell-based.
Assay [30] concerns the target Mitogen-activated protein kinase 8 (Homo sapiens) (UniProt P45983). Briefly: Inhibition of human JNK1 at 10 uM relative to control.
The target in assay [31] is Histone-lysine N-methyltransferase ASH1L (Homo sapiens) (UniProt Q9NR48). Briefly: Inhibition of ASH1L (unknown origin) at 1 to 10 uM incubated for 1 hrs by scintillation proximity assay. The settings on record: dose 1-10 µM.
Assay [32] deals with Histone-lysine N-methyltransferase SETD2 (Homo sapiens) (UniProt Q9BYW2). Kind of assay: Inhibition of SETD2 (unknown origin) using Biotin-tagged H4K20me1 and [3H-SAM] as substrate at 1 to 10 uM incubated for 2 hrs by scintillation proximity assay. To be noted: dose 1-10 µM.

The source made the active and inactive calls. The calls are words filed in the database; no cut-off is given here.

Sequence of Histone-lysine N-methyltransferase KMT5B (Homo sapiens) (Q4FZB7 whole entry, looked up, the tested form may be a part): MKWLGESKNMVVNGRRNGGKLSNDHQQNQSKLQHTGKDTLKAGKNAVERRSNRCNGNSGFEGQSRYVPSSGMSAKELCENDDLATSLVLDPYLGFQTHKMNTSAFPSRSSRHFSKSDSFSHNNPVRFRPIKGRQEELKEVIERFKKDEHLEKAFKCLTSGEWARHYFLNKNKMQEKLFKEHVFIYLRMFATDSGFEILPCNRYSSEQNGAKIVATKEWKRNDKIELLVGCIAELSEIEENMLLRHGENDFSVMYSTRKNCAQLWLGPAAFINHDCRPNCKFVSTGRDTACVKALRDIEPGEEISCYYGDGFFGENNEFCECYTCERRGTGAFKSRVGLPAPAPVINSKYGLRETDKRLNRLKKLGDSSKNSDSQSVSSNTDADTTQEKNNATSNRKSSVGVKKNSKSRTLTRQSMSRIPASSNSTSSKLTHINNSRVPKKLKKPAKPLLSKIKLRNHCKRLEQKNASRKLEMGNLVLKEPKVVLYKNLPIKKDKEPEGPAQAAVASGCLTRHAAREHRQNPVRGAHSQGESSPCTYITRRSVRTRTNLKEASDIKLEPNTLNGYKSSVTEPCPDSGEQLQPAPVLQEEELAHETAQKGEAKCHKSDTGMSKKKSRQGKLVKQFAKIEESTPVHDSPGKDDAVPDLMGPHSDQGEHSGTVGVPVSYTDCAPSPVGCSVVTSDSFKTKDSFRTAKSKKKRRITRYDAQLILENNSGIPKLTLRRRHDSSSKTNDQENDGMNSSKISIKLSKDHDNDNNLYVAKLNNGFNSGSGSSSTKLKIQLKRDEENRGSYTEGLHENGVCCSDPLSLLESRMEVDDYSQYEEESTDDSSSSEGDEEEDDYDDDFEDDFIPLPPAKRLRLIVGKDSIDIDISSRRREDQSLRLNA
Sequence of RAF proto-oncogene serine/threonine-protein kinase (Homo sapiens) (P04049 whole entry, the tested form may be a part): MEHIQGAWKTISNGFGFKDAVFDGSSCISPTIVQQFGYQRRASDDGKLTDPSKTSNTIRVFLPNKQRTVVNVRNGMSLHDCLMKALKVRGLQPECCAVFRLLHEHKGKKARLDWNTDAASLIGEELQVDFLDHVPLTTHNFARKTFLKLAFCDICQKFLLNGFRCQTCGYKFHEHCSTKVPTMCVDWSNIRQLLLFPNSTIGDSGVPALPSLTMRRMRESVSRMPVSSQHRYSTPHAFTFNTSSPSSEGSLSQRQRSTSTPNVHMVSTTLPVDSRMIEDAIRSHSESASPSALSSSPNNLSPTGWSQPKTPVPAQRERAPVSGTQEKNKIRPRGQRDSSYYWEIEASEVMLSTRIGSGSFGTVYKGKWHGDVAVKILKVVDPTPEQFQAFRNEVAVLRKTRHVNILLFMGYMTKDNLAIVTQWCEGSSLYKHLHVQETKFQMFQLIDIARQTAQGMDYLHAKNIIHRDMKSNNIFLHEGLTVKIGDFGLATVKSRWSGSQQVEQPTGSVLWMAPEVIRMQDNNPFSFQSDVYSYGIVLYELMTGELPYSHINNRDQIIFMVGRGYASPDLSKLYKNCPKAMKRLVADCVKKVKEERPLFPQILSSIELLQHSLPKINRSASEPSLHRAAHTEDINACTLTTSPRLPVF
Sequence of Protein arginine N-methyltransferase 8 (Homo sapiens) (Q9NR22 2-394 limits assumed): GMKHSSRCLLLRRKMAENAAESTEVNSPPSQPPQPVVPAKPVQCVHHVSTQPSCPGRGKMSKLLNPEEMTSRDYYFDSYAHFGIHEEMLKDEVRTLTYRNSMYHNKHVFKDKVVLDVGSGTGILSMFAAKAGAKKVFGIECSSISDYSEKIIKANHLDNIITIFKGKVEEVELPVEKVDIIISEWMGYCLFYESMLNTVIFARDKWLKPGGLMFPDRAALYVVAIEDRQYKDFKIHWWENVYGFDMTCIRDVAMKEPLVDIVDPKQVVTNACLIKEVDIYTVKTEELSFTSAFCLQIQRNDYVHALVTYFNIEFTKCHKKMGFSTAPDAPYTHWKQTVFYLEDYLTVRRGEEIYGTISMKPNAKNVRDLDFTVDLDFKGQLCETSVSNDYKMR
Sequence of Sigma non-opioid intracellular receptor 1 (Homo sapiens) (Q99720 whole entry): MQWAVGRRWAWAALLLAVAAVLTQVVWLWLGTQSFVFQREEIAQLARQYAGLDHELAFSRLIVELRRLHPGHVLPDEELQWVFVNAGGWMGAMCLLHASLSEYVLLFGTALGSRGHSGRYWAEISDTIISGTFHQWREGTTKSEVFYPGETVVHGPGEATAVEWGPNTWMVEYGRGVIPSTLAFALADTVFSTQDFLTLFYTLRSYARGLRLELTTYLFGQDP
Sequence of Histone-lysine N-methyltransferase, H3 lysine-79 specific (Homo sapiens) (Q8TEK3 whole entry, looked up): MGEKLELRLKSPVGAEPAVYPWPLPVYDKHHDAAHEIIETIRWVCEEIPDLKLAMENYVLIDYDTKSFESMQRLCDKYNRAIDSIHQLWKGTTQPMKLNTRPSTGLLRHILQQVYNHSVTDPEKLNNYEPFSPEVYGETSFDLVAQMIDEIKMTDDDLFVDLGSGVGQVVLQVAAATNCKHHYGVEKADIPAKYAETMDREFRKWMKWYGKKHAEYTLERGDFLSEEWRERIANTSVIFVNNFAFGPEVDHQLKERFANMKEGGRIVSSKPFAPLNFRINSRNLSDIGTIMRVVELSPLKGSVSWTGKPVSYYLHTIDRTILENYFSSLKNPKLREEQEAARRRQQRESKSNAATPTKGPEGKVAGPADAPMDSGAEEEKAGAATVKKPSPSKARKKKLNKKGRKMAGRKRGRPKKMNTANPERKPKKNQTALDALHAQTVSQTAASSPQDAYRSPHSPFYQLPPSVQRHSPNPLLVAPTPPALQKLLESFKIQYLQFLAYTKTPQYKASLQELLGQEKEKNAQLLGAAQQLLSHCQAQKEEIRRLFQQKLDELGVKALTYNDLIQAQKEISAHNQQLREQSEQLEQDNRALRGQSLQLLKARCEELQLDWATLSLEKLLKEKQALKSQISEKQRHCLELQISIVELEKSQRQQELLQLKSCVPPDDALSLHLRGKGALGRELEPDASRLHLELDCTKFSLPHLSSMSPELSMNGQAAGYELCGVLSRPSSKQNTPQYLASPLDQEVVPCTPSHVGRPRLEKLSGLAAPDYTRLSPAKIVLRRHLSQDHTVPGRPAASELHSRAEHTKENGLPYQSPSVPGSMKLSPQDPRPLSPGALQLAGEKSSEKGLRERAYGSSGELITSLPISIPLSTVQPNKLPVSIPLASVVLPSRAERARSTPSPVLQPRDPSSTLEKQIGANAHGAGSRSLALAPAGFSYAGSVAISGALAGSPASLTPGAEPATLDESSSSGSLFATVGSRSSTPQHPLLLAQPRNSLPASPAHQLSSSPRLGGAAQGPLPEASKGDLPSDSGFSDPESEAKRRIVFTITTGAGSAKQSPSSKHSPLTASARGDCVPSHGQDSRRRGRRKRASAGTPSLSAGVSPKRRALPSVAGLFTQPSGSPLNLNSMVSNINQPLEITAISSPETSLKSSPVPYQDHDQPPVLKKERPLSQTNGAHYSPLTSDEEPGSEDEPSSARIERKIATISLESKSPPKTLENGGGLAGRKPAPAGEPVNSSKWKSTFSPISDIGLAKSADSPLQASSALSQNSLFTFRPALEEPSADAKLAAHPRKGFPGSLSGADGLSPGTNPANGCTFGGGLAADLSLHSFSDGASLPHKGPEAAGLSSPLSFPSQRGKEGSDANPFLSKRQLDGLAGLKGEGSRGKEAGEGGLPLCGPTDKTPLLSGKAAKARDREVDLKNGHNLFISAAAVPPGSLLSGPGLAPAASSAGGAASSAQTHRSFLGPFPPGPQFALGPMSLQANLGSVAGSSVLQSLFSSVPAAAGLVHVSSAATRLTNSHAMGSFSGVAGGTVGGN
Sequence of Mitogen-activated protein kinase 8 (Homo sapiens) (P45983 whole entry): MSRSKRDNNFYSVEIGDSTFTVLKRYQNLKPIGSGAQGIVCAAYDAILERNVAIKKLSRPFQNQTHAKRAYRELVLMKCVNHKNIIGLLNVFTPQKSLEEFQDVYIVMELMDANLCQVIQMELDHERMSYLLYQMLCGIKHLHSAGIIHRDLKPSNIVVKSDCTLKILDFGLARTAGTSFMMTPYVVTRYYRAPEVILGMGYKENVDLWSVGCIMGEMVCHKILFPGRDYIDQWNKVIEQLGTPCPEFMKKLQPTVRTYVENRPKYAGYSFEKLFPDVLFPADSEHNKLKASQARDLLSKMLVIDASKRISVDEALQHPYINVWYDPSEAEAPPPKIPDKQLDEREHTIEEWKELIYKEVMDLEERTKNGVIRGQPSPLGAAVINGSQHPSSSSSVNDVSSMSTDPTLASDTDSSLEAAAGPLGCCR
Sequence of N-lysine methyltransferase SMYD2 (Homo sapiens) (Q9NRG4 whole entry): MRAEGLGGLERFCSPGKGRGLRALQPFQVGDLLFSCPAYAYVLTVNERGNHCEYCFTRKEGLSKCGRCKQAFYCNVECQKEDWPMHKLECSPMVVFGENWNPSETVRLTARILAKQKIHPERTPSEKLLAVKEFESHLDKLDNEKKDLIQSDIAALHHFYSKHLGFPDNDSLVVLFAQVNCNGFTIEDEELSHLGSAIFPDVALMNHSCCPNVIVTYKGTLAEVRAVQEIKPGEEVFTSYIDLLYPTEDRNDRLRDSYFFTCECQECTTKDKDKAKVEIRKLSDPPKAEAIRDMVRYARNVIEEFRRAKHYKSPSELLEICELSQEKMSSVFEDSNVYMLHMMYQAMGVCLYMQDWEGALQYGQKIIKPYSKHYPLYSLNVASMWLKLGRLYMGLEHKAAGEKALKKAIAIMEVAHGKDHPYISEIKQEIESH
Sequence of Calcium/calmodulin-dependent protein kinase type II subunit alpha (Homo sapiens) (Q9UQM7 whole entry, the tested form may be a part): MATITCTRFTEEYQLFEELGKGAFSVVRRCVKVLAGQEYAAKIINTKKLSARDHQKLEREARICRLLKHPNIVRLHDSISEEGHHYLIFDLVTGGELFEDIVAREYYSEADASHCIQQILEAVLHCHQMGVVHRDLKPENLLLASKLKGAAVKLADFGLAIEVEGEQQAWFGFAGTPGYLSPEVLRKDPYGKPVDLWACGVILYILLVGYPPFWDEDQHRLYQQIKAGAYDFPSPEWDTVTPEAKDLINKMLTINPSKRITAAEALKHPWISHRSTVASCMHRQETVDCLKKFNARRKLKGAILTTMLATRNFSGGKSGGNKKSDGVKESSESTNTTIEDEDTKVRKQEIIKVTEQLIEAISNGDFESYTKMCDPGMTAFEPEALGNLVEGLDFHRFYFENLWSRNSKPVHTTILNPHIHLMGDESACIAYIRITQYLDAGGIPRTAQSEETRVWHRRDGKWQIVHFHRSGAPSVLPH

A word on the inhibition: it is the change of the read-out against control, counted positive when it falls. In the case of `O=C(c1nnc(NC2CCCC2)c2cc(Cl)c(Cl)cc12)N1CCC(O)CC1`, the result in the assay on U2OS [1] was inactive. The inhibition in assay [2] was 10%; in the assay filed under Homo sapiens [3] it was 25%; in [4] it was 3%; in assay [5], -7%; in the assay filed under Homo sapiens [6] it was -5%.
`Clc1cc2c(NC3CCCC3)nnc(-c3ccncc3)c2cc1Cl`: the inhibition result (with U2OS [7]; with U2OS [20]; in assay [22]; with U2OS [23]; in assay [28]) was “Active” each time. For the same compound, the inhibition result in assay [8], in assay [9], in assay [10], in [12], in assay [13] and in [14] was “inactive” each time. Moreover, the inhibition result in assay [17], in [19], in assay [25], in [31] and in assay [32] was “inactive” throughout. Besides, the inhibition in assay [11] is -4%; in [16], -1%; in the assay filed under Rattus norvegicus, 5%; in assay [21], 8%; in assay [24], 7%; in [27], -5%. The inhibition in [30] was -8%. Besides, the result with U2OS [15], in the assay with U2OS [18], with HeLa, with U2OS [26], in the assay on LNCaP and in the assay on HL-60 was Active. The outcome in the assay on U2OS [29] was Active.

For the origin of these results see ChEMBL document CHEMBL5649167, “The SUV4-20 inhibitor A-196 verifies a role for epigenetics in genomic integrity” (Nat Chem Biol, 2017).
